Measured values from patent publication US20150141523A1, “COMPOUNDS FOR USE IN THE TREATMENT OF AUTOIMMUNE INFLAMMATORY DISEASE” (Venantius Limited, priority 2012, published 2015).

Assays:
[1] = test system: IL-2 secretion from Jurkat T cells; assay: IL-2 secretion from activated Jurkat T cells (ELISA); type: cell-based, human; conditions: for IL-2 [ ]pg/ml (1) / IL-2 % Control (1): experiment (1); for IL-2 % Control (1) / IL-2 % Control (2) / IL-2 % Control (3): relative to DMSO 0.1%; for IL-2 [ ]pg/ml (2) / IL-2 % Control (2): experiment (2); for IL-2 [ ]pg/ml (3) / IL-2 % Control (3): experiment (3)
Protocol: The T cell line Jurkat 6.1 (ATCC) was used. Cells were pre-treated for 30 min with 1 μM or 10 μM of the respective compound and then stimulated with plate-bound anti-CD3 (BD Pharmingen) and anti-CD28 (AnCell). DMSO was used as vehicle control. The immunosuppressive agent Cyclosporine A was used as a control for inhibition of IL-2 production. After 24 hs the supernatant was collected and IL-2 secretion was measured by ELISA.
Jurkat T cells were cultured in RMPI-1640 medium containing 10 % Foetal Bovine Serum, Penicillin/Streptomycin and L-Glutamine in T-75cm2 flasks at 37° C. and 5 % CO2. Cells were seeded into new culture flasks at a density of 1-3×10^5 cells per ml and maintained at a density of 0.5−1×10^6 cells per ml.
(§1) (A) Anti-TCR/CD28-mediated activation of Jurkat cells: Experiments involving anti-TCR/CD28-mediated activation of Jurkat T lymphocytes were carried out on 24-well cell culture plates. The plates were coated with a 1/100 dilution of rabbit anti-mouse IgG in sterile PBS (1×) and incubated overnight at 4OC. Unbound antibody was aspirated and the wells were gently rinsed with warm sterile PBS. The PBS was aspirated and the wells were coated with a 1/100 dilution of anti-TCR antibody (OKT-3) and a 1/200 dilution of anti-CD28 antibody (both antibodies pre-mixed prior to addition to the plates) in sterile PBS. The plates were then incubated for 1-2 hours at 37° C. Unbound antibody was aspirated and the wells were gently rinsed with warm PBS. The PBS was left on the plate until the Jurkat cells were ready to be added to the plate. The Jurkat cells were harvested from the T-75cm2 cell culture flasks and resuspended at a density of 0.5×10^6 cells per ml. The compounds were dissolved at a specified stock concentration (see results section) and diluted to the required concentration by adding the drug to the cell suspension. The cells were then pre-incubated with the compounds or with an equivalent volume of drug vehicle control (DMSO) for 30 minutes prior to adding the cell suspension to the antibody-coated plates. Cyclosporine A (1 μM) was used as a positive control to inhibit IL-2 production from activated T cells and was preincubated with the 6 cells as described above in parallel. The cells were then incubated on the plates with the acti-TCR/CD28 antibodies for 24 hours at 37° C. and 5% CO2 in a humidified atmosphere. After 24 hours, the cell suspension was removed from the plates and the cells were pelleted by centrifugation. The cell culture supernatant was saved and analysed for secreted IL-2 by ELISA. The cell pellet was saved and cell viability was measured using Acridine Orange/Ethidium Bromide cell viability staining solution.
(B) PHA/PMA-mediated activation of Jurkat cells Jurkat cells were resuspended at a concentration of 0.5×10^6 cells per ml and the Pharmatrin compounds at the desired concentration or an equivalent volume of drug vehicle control (DMSO) were added to the cells and incubated for 30 minutes. Cyclosporine A (1 ∝M) was used as a positive control to inhibit IL-2 production from activated T cells and was preincubated with the cells as described above in parallel. PHA and PMA were added to the cell suspension (10 ∝g/ml and 10 ng/ml respectively) and the cells were plated onto uncoated 24-well plates. The cells were incubated on the plates for 24 hours at 37° C. and 5 % CO2 in a humidified atmosphere. After 24 hours, the cell suspension was removed from the plates and the cells were pelleted by centrifugation. The cell culture supernatant was saved and analysed for secreted IL-2 by ELISA.
The cell culture supernatants were analysed for IL-2 by ELISA (96-well plate format) using the Human IL-2 ELISA kit from R&D Systems Europe. This assay was carried out using the standard protocol outlined by the company. Samples and standards (recombinant human IL-2 provided by R&D Systems) were analysed in triplicate. […]

[2] = test system: Balb/C mice; assay: 5% DSS-induced murine colitis model; type: in vivo, mouse; conditions: for inhibition of DAI in DSS-induced colitis: 5% DSS colitis (FIG. 9); for effect on DSS-induced weight loss: 5% DSS colitis, 30 mg/kg p.o. (FIG. 8)
[3] = test system: Jurkat cells; assay: Jurkat cell viability (Acridine Orange/Ethidium Bromide); type: cell-based
Protocol: as §1
The cell pellet was resuspended in 20 μl of Acridine Orange/Ethidium Bromide staining solution. A portion of this cell suspension was placed on a haemocytometer and analysed under a fluorescence microscope. […] The ratio of viable cells: non-viable cells were calculated for each activation time point/drug treatment.

| Molecule | IL-2 [ ]pg/ml (1) ([1]; 0.3 uM) [pg/mL] | IL-2 % Control (1) ([1]; 0.3 uM) [%] | IL-2 [ ]pg/ml (2) ([1]; 0.3 uM) [pg/mL] | IL-2 % Control (2) ([1]; 0.3 uM) [%] | IL-2 [ ]pg/ml (3) ([1]; 0.3 uM) [pg/mL] | IL-2 % Control (3) ([1]; 0.3 uM) [%] | IL-2 [ ]pg/ml (1) ([1]; 1 uM) [pg/mL] | IL-2 % Control (1) ([1]; 1 uM) [%] | IL-2 [ ]pg/ml (2) ([1]; 1 uM) [pg/mL] | IL-2 % Control (2) ([1]; 1 uM) [%] | IL-2 [ ]pg/ml (3) ([1]; 1 uM) [pg/mL] | IL-2 % Control (3) ([1]; 1 uM) [%] | IL-2 [ ]pg/ml (1) ([1]; 3 uM) [pg/mL] | IL-2 % Control (1) ([1]; 3 uM) [%] | IL-2 [ ]pg/ml (2) ([1]; 3 uM) [pg/mL] | IL-2 % Control (2) ([1]; 3 uM) [%] | IL-2 [ ]pg/ml (3) ([1]; 3 uM) [pg/mL] | IL-2 % Control (3) ([1]; 3 uM) [%] | IL-2 [ ]pg/ml (1) ([1]; 10 uM) [pg/mL] | IL-2 % Control (1) ([1]; 10 uM) [%] | also measured |
| --- | --- | --- | --- | --- | --- | --- | --- | --- | --- | --- | --- | --- | --- | --- | --- | --- | --- | --- | --- | --- | --- |
| O[C@H]1c2ccccc2C[C@]1(Cc1ccccc1)C1=Cc2ccccc2C1 (single isomer, unassigned) [Compound 9] | 111.72 | 152.99 | 73.45 | 112.48 | 139.63 | 106.13 | 120.56 | 165.09 | 65.45 | 100.23 | 114.13 | 86.75 | 78.78 | 107.88 | 81.75 | 59.11 | 53.47 | 40.64 | 37.72 | 51.66 | IL-2 [ ]pg/ml (2) ([1]; 10 uM): 85.60 pg/mL; IL-2 % Control (2) ([1]; 10 uM): 131.09%; IL-2 [ ]pg/ml (3) ([1]; 10 uM): 36.16 pg/mL; IL-2 % Control (3) ([1]; 10 uM): 27.48%; IL-2 [ ]pg/ml (1) ([1]; 30 uM): -4.56 pg/mL; IL-2 % Control (1) ([1]; 30 uM): −6.24%; IL-2 [ ]pg/ml (2) ([1]; 30 uM): 16.35 pg/mL; IL-2 % Control (2) ([1]; 30 uM): 25.04%; IL-2 [ ]pg/ml (3) ([1]; 30 uM): -3.88 pg/mL; IL-2 % Control (3) ([1]; 30 uM): −2.95%; IL-2 [ ]pg/ml (1) ([1]; 100 uM): -3.72 pg/mL; IL-2 % Control (1) ([1]; 100 uM): −5.10%; IL-2 [ ]pg/ml (2) ([1]; 100 uM): -5.75 pg/mL; IL-2 % Control (2) ([1]; 100 uM): −8.81%; IL-2 [ ]pg/ml (3) ([1]; 100 uM): -5.28 pg/mL; IL-2 % Control (3) ([1]; 100 uM): −4.01%; inhibition of DAI in DSS-induced colitis [2]: only the S,S-enantiomer 10 caused a significant; effect on DSS-induced weight loss [2]: not |
| O[C@@H]1c2ccccc2C[C@@]1(Cc1ccccc1)C1=Cc2ccccc2C1 (single isomer, unassigned) [Compound 10] | 79.17 | 108.41 | 88.15 | 134.99 | 58.63 | 44.56 | 64.17 | 87.87 | 57.50 | 88.06 | 104.44 | 79.39 | 71.39 | 97.76 | 54.15 | 82.92 | 100.50 | 76.39 | 42.50 | 58.20 | IL-2 [ ]pg/ml (2) ([1]; 10 uM): 45.60 pg/mL; IL-2 % Control (2) ([1]; 10 uM): 69.83%; IL-2 [ ]pg/ml (3) ([1]; 10 uM): 80.25 pg/mL; IL-2 % Control (3) ([1]; 10 uM): 61.00%; IL-2 [ ]pg/ml (1) ([1]; 30 uM): 14.17 pg/mL; IL-2 % Control (1) ([1]; 30 uM): 19.40%; IL-2 [ ]pg/ml (2) ([1]; 30 uM): 56.70 pg/mL; IL-2 % Control (2) ([1]; 30 uM): 86.83%; IL-2 [ ]pg/ml (3) ([1]; 30 uM): 46.06 pg/mL; IL-2 % Control (3) ([1]; 30 uM): 35.01%; IL-2 [ ]pg/ml (1) ([1]; 100 uM): -11.33 pg/mL; IL-2 % Control (1) ([1]; 100 uM): −15.52%; IL-2 [ ]pg/ml (2) ([1]; 100 uM): -6.30 pg/mL; IL-2 % Control (2) ([1]; 100 uM): −9.65%; IL-2 [ ]pg/ml (3) ([1]; 100 uM): -0.78 pg/mL; IL-2 % Control (3) ([1]; 100 uM): −0.59%; inhibition of DAI in DSS-induced colitis [2]: significant (P<0.0059) inhibition; effect on DSS-induced weight loss [2]: ameliorated; disease activity index (DAI) ([2]; day 7, mean±SEM, vehicle control 6.833±1.276): 2.333±0.211 |
| (R,S or SR)2-Benzyl-2,3-dihydro-1H,1′H-2,2′-biinden-1-ol [Compound 7] | 44.65 | 218.87 | 93.65 | 143.42 | 112.94 | 85.85 | 49.20 | 241.18 | 71.40 | 109.34 | 109.59 | 83.31 | 43.25 | 212.01 | 45.10 | 69.07 | 97.25 | 73.92 | 24.75 | 121.32 | IL2 release from Jurkat cells [1]: inhibited IL2 release; IL-2 [ ]pg/ml (2) ([1]; 10 uM): 36.75 pg/mL; IL-2 % Control (2) ([1]; 10 uM): 56.28%; IL-2 [ ]pg/ml (3) ([1]; 10 uM): 81.84 pg/mL; IL-2 % Control (3) ([1]; 10 uM): 62.21%; IL-2 [ ]pg/ml (1) ([1]; 30 uM): 10.10 pg/mL; IL-2 % Control (1) ([1]; 30 uM): 49.51%; IL-2 [ ]pg/ml (2) ([1]; 30 uM): 27.80 pg/mL; IL-2 % Control (2) ([1]; 30 uM): 42.57%; IL-2 [ ]pg/ml (3) ([1]; 30 uM): 32.00 pg/mL; IL-2 % Control (3) ([1]; 30 uM): 24.32%; IL-2 [ ]pg/ml (1) ([1]; 100 uM): 1.15 pg/mL; IL-2 % Control (1) ([1]; 100 uM): 5.64%; IL-2 [ ]pg/ml (2) ([1]; 100 uM): -19.30 pg/mL; IL-2 % Control (2) ([1]; 100 uM): −29.56%; IL-2 [ ]pg/ml (3) ([1]; 100 uM): -3.13 pg/mL; IL-2 % Control (3) ([1]; 100 uM): −2.38%; cell viability [3]: without affecting cell viability |
